Values of other authors as cited in patent US20130202712A1, “Compositions And Methods For Treating Or Preventing Immuno-Inflammatory Disease” (VINDICO NANOBIO TECHNOLOGY, INC., priority 2010, published 2013).

Details: free resveratrol

Solubility in water: very low solubility in water
Compound: Oc1ccc(C=Cc2cc(O)cc(O)c2)cc1 [resveratrol, 3,5,4′-trihydroxystilbene]
